Assay type: physicochemical
Experimental: A 1:1 mixture of Form I and Form II was suspended in isopropanol and agitated with a magnetic stirrer for 18 h in a tightly sealed glass […]. […] Subsequently the sample was filtered with a micro glass filter funnel (G3), dried and evacuated.

Structure (SMILES): COc1ccccc1OCCNCC(O)COc1cccc2[nH]c3ccccc3c12 (racemic) [Form I, (±)1-(4-carbazolyloxy)-3-[2-(2-methoxyphenoxy)ethylamno]-2-propanole]
- thermodynamic stability of the modification: thermodynamically stable form

Source: patent US6730326B2, “Thermodynamically stable modification of 1-(4-carbazolyl-oxy-3[2-(2-methoxyphenoxy)-ethylamino]-2-propanol process for its preparation and pharmaceutical compositions containing it” (Roche Diagnostics GmbH, priority 1997, dated 2004)
